Assay results reported in ChEMBL document CHEMBL1201862, “PubChem BioAssay data set” (2004).
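Compound exposure: 48 hours, 5 concentrations, 96-well plates. The concentration for 50% growth inhibition is given as GI50.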 Calls of active or inactive are those of the source. No stated cut-off is given here; in the data, active = GI50 up to about 1.1 µM and inactive = higher.

Columns and labels:
Test in all cases: NCI anticancer screen, dose series, 48 h
OVCAR-3 = system: OVCAR-3
SN12C = system: SN12C
U-251 = system: U-251
SK-MEL-28 = system: SK-MEL-28
HL-60 = system: HL-60
KM12 = system: KM12
XF498 = system: XF498
OVCAR-5 = system: OVCAR-5
SF-295 = system: SF-295
SF-268 = system: SF-268
DMS-114 = system: DMS-114
LXFL 529 = system: LXFL 529
HCC 2998 = system: HCC 2998
UO-31 = system: UO-31
Malme-3M = system: Malme-3M
HT-29 = system: HT-29
IGROV-1 = system: IGROV-1
M14 = system: M14
K562 = system: K562
MOLT-4 = system: MOLT-4
786-0 = system: 786-0
M19-MEL = system: M19-MEL
DMS-273 = system: DMS-273
HOP-62 = system: HOP-62
A498 = system: A498
OVCAR-4 = system: OVCAR-4
NCI-H460 = system: NCI-H460
SW-620 = system: SW-620
UACC-257 = system: UACC-257
SNB-75 = system: SNB-75
UACC-62 = system: UACC-62
NCI-H226 = system: NCI-H226
A549 = system: A549
CAKI-1 = system: CAKI-1
ACHN = system: ACHN
KM-20L2 = system: KM-20L2
SK-MEL-5 = system: SK-MEL-5
SK-OV-3 = system: SK-OV-3
NCI-H522 = system: NCI-H522
EKVX = system: EKVX
HCT-116 = system: HCT-116
SR = system: SR
SNB-19 = system: SNB-19
SF-539 = system: SF-539
HCT-15 = system: HCT-15
SK-MEL-2 = system: SK-MEL-2
OVCAR-8 = system: OVCAR-8
RPMI-8226 = system: RPMI-8226
LOX IMVI = system: LOX IMVI
CCRF-CEM = system: CCRF-CEM
RXF 393 = system: RXF 393
NCI-H23 = system: NCI-H23
BT-549 = system: BT-549
T47D = system: T47D
HOP-18 = system: HOP-18
COLO 205 = system: COLO 205
DLD-1 = system: DLD-1
NCI/ADR-RES = system: NCI/ADR-RES
MCF7 = system: MCF7
TK-10 = system: TK-10
PC-3 = system: PC-3
SNB-78 = system: SNB-78
HOP-92 = system: HOP-92
MDA-MB-435 = system: MDA-MB-435
MDA-MB-231 = system: MDA-MB-231
DU-145 = system: DU-145
Hs-578T = system: Hs-578T

With `N#CCCN(CCC#N)c1ccc(/C=C2\N=C(c3cc([N+](=O)[O-])ccc3Cl)OC2=O)cc1` the GI50 (OVCAR-3) was 27.8 µM (inactive), the GI50 (SN12C) was 19.9 µM (inactive) and the GI50 (U-251) was 17.6 µM (inactive). For the same compound, the GI50 (SK-MEL-28) was 52.6 µM (inactive), the GI50 (HL-60) was 38.1 µM (inactive) and the GI50 (KM12) was 14.7 µM (inactive). For the same compound, the GI50 (XF498) was 35.4 µM (inactive), the GI50 (OVCAR-5) was > 100 µM (inactive) and the GI50 (SF-295) was 44.5 µM (inactive). The GI50 (SF-268) was 45.1 µM (inactive), the GI50 (DMS-114) was 25.4 µM (inactive) and the GI50 (LXFL 529) was 18.1 µM (inactive). The GI50 (HCC 2998) was 21.6 µM (inactive), the GI50 (UO-31) was > 100 µM (inactive) and the GI50 (Malme-3M) was > 100 µM (inactive). The GI50 (HT-29) was > 100 µM (inactive), the GI50 (IGROV-1) was > 100 µM (inactive) and the GI50 (M14) was 35.6 µM (inactive). For the same compound, the GI50 (K562) was 18.2 µM (inactive), the GI50 (MOLT-4) was 24.2 µM (inactive) and the GI50 (786-0) was 34.4 µM (inactive). The GI50 (M19-MEL) was 20.5 µM (inactive), the GI50 (DMS-273) was > 100 µM (inactive) and the GI50 (HOP-62) was 35.4 µM (inactive). The GI50 (A498) was > 100 µM (inactive), the GI50 (OVCAR-4) was 30 µM (inactive) and the GI50 (NCI-H460) was 67.5 µM (inactive). For the same compound, the GI50 (SW-620) was 68.4 µM (inactive), the GI50 (UACC-257) was 20 µM (inactive) and the GI50 (SNB-75) was 23.9 µM (inactive). The GI50 (UACC-62) was 62.4 µM (inactive), the GI50 (NCI-H226) was 22.4 µM (inactive) and the GI50 (A549) was > 100 µM (inactive). For the same compound, the GI50 (CAKI-1) was > 100 µM (inactive), the GI50 (ACHN) was > 100 µM (inactive) and the GI50 (KM-20L2) was > 100 µM (inactive). For the same compound, the GI50 (SK-MEL-5) was 16 µM (inactive), the GI50 (SK-OV-3) was > 100 µM (inactive) and the GI50 (NCI-H522) was 14 µM (inactive). For the same compound, the GI50 (EKVX) was > 100 µM (inactive), the GI50 (HCT-116) was > 100 µM (inactive) and the GI50 (SR) was 33.3 µM (inactive). The GI50 (SNB-19) was 25.9 µM (inactive), the GI50 (SF-539) was 40.3 µM (inactive) and the GI50 (HCT-15) was 53.2 µM. The GI50 (SK-MEL-2) was 20 µM (inactive), the GI50 (OVCAR-8) was 19.1 µM (inactive) and the GI50 (RPMI-8226) was 88.7 µM (inactive). The GI50 (LOX IMVI) was 23.7 µM (inactive).
With `COc1cc2c(cc1OC)C(Cl)C(c1ccc(F)cc1)=C2Cl` (centres undefined) the GI50 (OVCAR-3) was 16.7 µM (inactive), the GI50 (SN12C) was 12.8 µM (inactive) and the GI50 (U-251) was 13.1 µM (inactive). The GI50 (SK-MEL-28) was 17.3 µM (inactive), the GI50 (HL-60) was 5.68 µM (inactive) and the GI50 (KM12) was 16.1 µM (inactive). The GI50 (CCRF-CEM) was 5.77 µM (inactive), the GI50 (RXF 393) was 15.4 µM (inactive) and the GI50 (OVCAR-5) was 16.6 µM (inactive). The GI50 (SF-295) was 14.4 µM (inactive), the GI50 (NCI-H23) was 11.8 µM (inactive) and the GI50 (BT-549) was 4.79 µM (inactive). The GI50 (T47D) was 10 µM (inactive), the GI50 (SF-268) was 15.7 µM (inactive) and the GI50 (HOP-18) was 15.2 µM (inactive). The GI50 (DMS-114) was 13.2 µM (inactive), the GI50 (LXFL 529) was 11.7 µM (inactive) and the GI50 (HCC 2998) was 15.1 µM (inactive). The GI50 (UO-31) was 13.5 µM (inactive), the GI50 (Malme-3M) was 13.2 µM (inactive) and the GI50 (HT-29) was 15.9 µM (inactive). For the same compound, the GI50 (IGROV-1) was 17.4 µM (inactive), the GI50 (M14) was 15.4 µM (inactive) and the GI50 (K562) was 6.12 µM (inactive). The GI50 (COLO 205) was 16.6 µM (inactive), the GI50 (MOLT-4) was 5.41 µM (inactive) and the GI50 (786-0) was 11.7 µM (inactive). The GI50 (DLD-1) was 16.9 µM (inactive), the GI50 (M19-MEL) was 16.8 µM (inactive) and the GI50 (DMS-273) was 16.4 µM (inactive). The GI50 (HOP-62) was 16.5 µM (inactive), the GI50 (A498) was 14.9 µM (inactive) and the GI50 (NCI/ADR-RES) was 13.6 µM (inactive). For the same compound, the GI50 (MCF7) was 11.6 µM (inactive), the GI50 (NCI-H460) was 11.5 µM (inactive) and the GI50 (SW-620) was 12.3 µM (inactive). For the same compound, the GI50 (TK-10) was 13.6 µM (inactive), the GI50 (UACC-257) was 14.9 µM (inactive) and the GI50 (PC-3) was 12.4 µM (inactive). For the same compound, the GI50 (SNB-78) was 15.4 µM (inactive), the GI50 (SNB-75) was 14.6 µM (inactive) and the GI50 (UACC-62) was 12.9 µM (inactive). The GI50 (HOP-92) was 9.08 µM (inactive), the GI50 (MDA-MB-435) was 11.4 µM (inactive) and the GI50 (NCI-H226) was 22.7 µM (inactive). For the same compound, the GI50 (A549) was 14.9 µM (inactive), the GI50 (CAKI-1) was 13.8 µM (inactive) and the GI50 (ACHN) was 13.2 µM (inactive). For the same compound, the GI50 (KM-20L2) was 14.8 µM (inactive), the GI50 (SK-MEL-5) was 14.1 µM (inactive) and the GI50 (SK-OV-3) was 20.1 µM (inactive). For the same compound, the GI50 (NCI-H522) was 7.73 µM (inactive), the GI50 (EKVX) was 7.19 µM (inactive) and the GI50 (HCT-116) was 12.9 µM (inactive). The GI50 (SR) was 3.01 µM (inactive), the GI50 (SNB-19) was 17.5 µM (inactive) and the GI50 (MDA-MB-231) was 13.8 µM (inactive). The GI50 (SF-539) was 16.3 µM (inactive), the GI50 (HCT-15) was 12.9 µM and the GI50 (SK-MEL-2) was 12.8 µM (inactive). The GI50 (DU-145) was 14.9 µM (inactive), the GI50 (Hs-578T) was 11.7 µM (inactive) and the GI50 (OVCAR-8) was 14.7 µM (inactive). For the same compound, the GI50 (RPMI-8226) was 9.06 µM (inactive) and the GI50 (LOX IMVI) was 11.6 µM (inactive).
`COC(=O)CC(NC(=O)OCc1ccccc1)C(C(=O)OCc1ccccc1)C(C)(OC)OC` (centres undefined) was tested, and the GI50 (OVCAR-3) was 21.3 µM (inactive), the GI50 (SN12C) was 30.5 µM (inactive) and the GI50 (U-251) was 27 µM (inactive). For the same compound, the GI50 (SK-MEL-28) was 52.1 µM (inactive), the GI50 (HL-60) was 15.1 µM (inactive) and the GI50 (CCRF-CEM) was 13 µM (inactive). For the same compound, the GI50 (XF498) was 14.1 µM (inactive), the GI50 (RXF 393) was 16.8 µM (inactive) and the GI50 (SF-295) was 24.6 µM (inactive). For the same compound, the GI50 (NCI-H23) was 17.4 µM (inactive), the GI50 (SF-268) was 39.9 µM (inactive) and the GI50 (DMS-114) was 22.8 µM (inactive). The GI50 (LXFL 529) was 5.69 µM (inactive), the GI50 (HCC 2998) was 38 µM (inactive) and the GI50 (UO-31) was 14.6 µM (inactive). For the same compound, the GI50 (Malme-3M) was 28 µM (inactive), the GI50 (HT-29) was 34.6 µM (inactive) and the GI50 (IGROV-1) was 19.6 µM (inactive). For the same compound, the GI50 (M14) was 33.6 µM (inactive), the GI50 (K562) was 10.6 µM (inactive) and the GI50 (COLO 205) was 16.9 µM (inactive). The GI50 (MOLT-4) was 5.94 µM (inactive), the GI50 (786-0) was 33.3 µM (inactive) and the GI50 (DLD-1) was 20.9 µM (inactive). The GI50 (M19-MEL) was 27.7 µM (inactive), the GI50 (DMS-273) was 33.3 µM (inactive) and the GI50 (HOP-62) was 44.9 µM (inactive). The GI50 (A498) was 3.95 µM (inactive), the GI50 (OVCAR-4) was 28.6 µM (inactive) and the GI50 (NCI-H460) was 31.7 µM (inactive). For the same compound, the GI50 (SW-620) was 32.9 µM (inactive), the GI50 (TK-10) was 39.2 µM (inactive) and the GI50 (UACC-257) was 23.7 µM (inactive). For the same compound, the GI50 (SNB-75) was 16.4 µM (inactive), the GI50 (UACC-62) was 10.5 µM (inactive) and the GI50 (NCI-H226) was 22.6 µM (inactive). The GI50 (A549) was 17.3 µM (inactive), the GI50 (ACHN) was 26.4 µM (inactive) and the GI50 (KM-20L2) was 45.4 µM (inactive). The GI50 (SK-MEL-5) was 12.4 µM (inactive), the GI50 (EKVX) was 29.7 µM (inactive) and the GI50 (HCT-116) was 34.3 µM (inactive). The GI50 (SR) was 8.81 µM (inactive), the GI50 (SNB-19) was 38.2 µM (inactive) and the GI50 (SF-539) was 29.2 µM (inactive). The GI50 (HCT-15) was 32.1 µM, the GI50 (SK-MEL-2) was 17.6 µM (inactive) and the GI50 (OVCAR-8) was 19.5 µM (inactive). The GI50 (RPMI-8226) was 10 µM (inactive) and the GI50 (LOX IMVI) was 16.6 µM (inactive).
